In this test the test system is HIV-1 (IIIB strain). The test can be described thus: Anti-HIV cytoprotection assay (XTT), HIV-1 IIIB in CEM-SS cells. Type of test: cell-based. Conditions: Human immunodeficiency virus 1, IIIB, CEM-SS, CEM-SS cell line; read-out: Inhibitory activity (EC50) against HIV-1 (IIIB strain). An excerpt: a) Inhibitory Activity of the Lymphocytropic Virus Strain HIV-1 (IIIB) in the CEM-SS Cell Line.
The evaluation was done by ImQuest BioSciences, Inc. (Frederick, Md., USA). CEM-SS cells [Foley G. E. et al. Continuous Culture of Human Lymphoblasts from Peripheral Blood of a Child with Acute Leukemia. Cancer 1965, 18, 522-529] obtained through the NIH AIDS Research and Reference Reagent Program (Manassas, Va., USA) were passaged in T-75 flasks prior to use cell culture medium consisting of RPMI1640 medium (Lonza; Walkersville, Md., USA) supplemented with 10% heat inactivated fetal bovine serum (Gibco; Grand Island, N.Y.), […] L-glutamine (Lonza), […] penicillin (Lonza) and […] streptomycin (Lonza) for antiviral analysis. The CEM-SS cells were kept in RPMI 140 medium supplemented with 10% heat inactivated bovine fetal serum, 2 mM glutamine, 100 U/ml penicillin, and 100 μg/ml streptomycin.
A lymphocytropic HIV-1 IIIB strain [Popovic, M. et al. Detection, isolation, and continuous production of cytopathic retroviruses (HTLV-III) from patients with AIDS and pre-AIDS. Science. 1984, 224 (4648), 497-500] was chosen for a virus to be analyzed. The virus was obtained through the NIH AIDS Research and Reference Reagents Program and grown in CEM-SS cells to produce a stock virus pool. A pre-titrated aliquot of the virus was removed from the freezer (−80° C.) and allowed to slowly thaw to room temperature in a biological safety cabinet. The virus was diluted in a tissue culture medium so that the amount of virus added in 50 μl per well was sufficient to kill 85 to 95% of the cells 6 days after infection. HIV-1 IIIB was grown and titrated in CEM-SS cells. The inhibitory effect of […] was evaluated in CEM-SS cells as described earlier [Nara, P. L. at al. Simple, rapid, quantitative, syncytium-forming microassay for the detection of human immunodeficiency virus neutralizing antibody. AIDS Res. Hum. Retroviruses 1987, 3, 283-302.] in microtiter plate anti-HIV assays to quantitatively assess the ability of a compound to inhibit HIV-induced cell death. Quantification was carried out using 2,3-bis-(2-methoxy-4-nitro-5-[…])-(2H)-tetrazolium-5-carboxanilide (XTT) tetrazolium, which is metabolized to a stained formazan product through viable […] The compounds given in Table 1 were dissolved at 10 μM in DMSO and stored at −20° C.
Test materials were evaluated using antiviral assays in triplicate in concentrations of 30 and 10 nM. The compounds shown in table 1 were dissolved at 10 μM in DMSO and stored at −20° C. […] Sixty nanomolar concentrations of each compound (2 times that of the test concentration in the well) were prepared by diluting 10 μM DMSO stock 1:100 in cell culture medium (10 μl of compound added to 990 μl of the medium) followed by 1:10 dilution (10 μl of the compound was added to 90 μl of the medium), then 6 μl was added to 994 μl of the medium; […] μl was added to a 96-well microtiter plate in triplicate to ensure efficacy and one colorimetric well. Twenty nanomolar concentrations of each compound (twice as much as the test concentration in the well) were prepared by diluting 10 μM DMSO with the original 1:100 in cell culture medium (10 μl of the compound added to 990 μl of the medium) followed by diluting […] (10 μl of the compound was added to 900 μl of the medium), then 20 μl was added to 980 μl of the medium; 100 μl was added to a 96-well microtiter plate in triplicate to ensure efficacy and one colorimetric well.
Azidothymidine (AZT) was purchased from Sigma Aldrich (USA) and evaluated as a positive control compound in an antiviral assay using a six-concentration reaction curve on each assay plate.
Test compounds were initially evaluated for HIV-1 IIIB strain in CEM-SS cells at test concentrations of 30 and 10 nM. […]
For orientation: Tetrazolium assays rely on reduction of a dye to a coloured formazan, in cell work by metabolically active cells.

The EC50 is the concentration at which the effect is half-maximal.

For `Cc1nnsc1CNC(=O)c1cn2c(c(O)c1=O)C(=O)N1[C@@H](C)CO[C@@H]1C2` [Compound 1.1.11, (3S,11aR)-6-hydroxy-3-methyl-N-[(4-methyl-1,2,3-thiadiazol-5-yl)methyl]-5,7-dioxo-2,3,5,7,11,11a-hexahydro[1,3]oxazolo[3,2-a]pyrido[1,2-d]pyrazine-8-carboxamide], the 50% effective concentration (EC50) was over 30 nM.
`C[C@H]1CO[C@@]23CCC[C@@H]2n2cc(C(=O)NCc4ccc(F)nc4F)c(=O)c(O)c2C(=O)N13` [Compound 2.2.1, (3aS,6S,13aS)-9-hydroxy-N-[(2,6-difluoropyridin-3-yl)methyl]-6-methyl-8,10-dioxo-1,2,3,5,6,8,10,13a-octahydrocyclopenta[b][1,3]oxazolo[3,2-a]pyrido[1,2-d]pyrazine-11-carboxamide]: the 50% effective concentration (EC50) was about 10 nM.
The same measure for `C[C@H]1CO[C@@H]2Cn3cc(C(=O)NCc4nc5ccc(Cl)cc5n4C)c(=O)c(O)c3C(=O)N12` [Compound 1.1.43, (3S,11aR)-6-hydroxy-3-methyl-N-[(1-methyl-6-chlorobenzimidazol-2-yl)methyl]-5,7-dioxo-2,3,5,7,11,11a-hexahydro[1,3]oxazolo[3,2-a]pyrido[1,2-d]pyrazine-8-carboxamide]: over 30 nM; for `C[C@H]1CO[C@@H]2Cn3cc(C(=O)NCc4ccccn4)c(=O)c(O)c3C(=O)N12` [Compound 1.1.15, (3S,11aR)-6-hydroxy-3-methyl-N-(pyridyl-2-ylmethyl)-5,7-dioxo-2,3,5,7,11,11a-hexahydro[1,3]oxazolo[3,2-a]pyrido[1,2-d]pyrazine-8-carboxamide]: 10 to 30 nM; for `CCn1nc(C)c(CNC(=O)c2cn3c(c(O)c2=O)C(=O)N2[C@@H](C)CO[C@@H]2C3)c1C` [Compound 1.1.6, (3S,11aR)-6-hydroxy-N-[(1-ethyl-3,5-dimethyl-1H-pyrazol-4-yl)methyl]3-methyl-5,7-dioxo-2,3,5,7,11,11a-hexahydro[1,3]oxazolo[3,2-a]pyrido[1,2-d]pyrazine-8-carboxamide]: 10 to 30 nM.
The same measure for `C[C@H]1CO[C@@H]2Cn3cc(C(=O)NCc4cn5ncsc5n4)c(=O)c(O)c3C(=O)N12` [Compound 1.1.29, (3S,11aR)-6-hydroxy-N-(imidazo[2,1-b][1,3,4]thiadiazol-6-ylmethyl)-3-methyl-5,7-dioxo-2,3,5,7,11,11a-hexahydro[1,3]oxazolo[3,2-a]pyrido[1,2-d]pyrazine-8-carboxamide]: over 30 nM; for `Cc1nccc(CNC(=O)c2cn3c(c(O)c2=O)C(=O)N2[C@@H](C)CO[C@@H]2C3)n1` [Compound 1.1.26, (3S,11aR)-6-hydroxy-3-methyl-N-[(2-methylpyrimidin-4-yl)methyl]-5,7-dioxo-2,3,5,7,11,11a-hexahydro[1,3]oxazolo[3,2-a]pyrido[1,2-d]pyrazine-8-carboxamide]: 10 to 30 nM; for `CC(C)n1c(CNC(=O)c2cn3c(c(O)c2=O)C(=O)N2[C@@H](C)CO[C@@H]2C3)nc2ccccc21` [Compound 1.1.44, (3S,11aR)-6-hydroxy-3-methyl-N-{[1-isopropyl-1H-benzimidazol-2-yl]methyl}-5,7-dioxo-2,3,5,7,11,11a-hexahydro[1,3]oxazolo[3,2-a]pyrido[1,2-d]pyrazine-8-carboxamide]: over 30 nM.
For `C[C@H]1CO[C@@H]2Cn3cc(C(=O)NCc4cnccn4)c(=O)c(O)c3C(=O)N12` [Compound 1.1.27, (3S,11aR)-6-hydroxy-3-methyl-N-(pyrazin-2-ylmethyl)-5,7-dioxo-2,3,5,7,11,11a-hexahydro[1,3]oxazolo[3,2-a]pyrido[1,2-d]pyrazine-8-carboxamide], the EC50 was over 30 nM.
The same measure for `C[C@H]1CO[C@@H]2Cn3cc(C(=O)NCc4nc5ccccc5n4C)c(=O)c(O)c3C(=O)N12` [Compound 1.1.42, (3S,11aR)-6-hydroxy-3-methyl-N-[(1-methyl-benzimidazol-2-yl)methyl]-5,7-dioxo-2,3,5,7,11,11a-hexahydro[1,3]oxazolo[3,2-a]pyrido[1,2-d]pyrazine-8-carboxamide]: over 30 nM; for `C[C@@H]1CO[C@@]23CCC[C@@H]2n2cc(C(=O)NCc4ccc(F)nc4F)c(=O)c(O)c2C(=O)N13` [Compound 2.1.1, (3aS,6R,13aS)-9-hydroxy-N-[(2,6-difluoropyridin-3-yl)methyl]-6-methyl-8,10-dioxo-1,2,3,5,6,8,10,13a-octahydrocyclopenta[b][1,3]oxazolo[3,2-a]pyrido[1,2-d]pyrazine-11-carboxamide]: 2 to 10 nM; for `C[C@H]1CO[C@@H]2Cn3cc(C(=O)NCc4ccc5[nH]c(=O)[nH]c5c4)c(=O)c(O)c3C(=O)N12` [Compound 1.1.46, (3S,11aR)-6-hydroxy-N-[(2-oxo-2,3-dihydro-1H-benzimidazol-5-yl)methyl]-3-methyl-5,7-dioxo-2,3,5,7,11,11a-hexahydro[1,3]oxazolo[3,2-a]pyrido[1,2-d]pyrazine-8-carboxamide]: over 30 nM.
The value for `C[C@H]1CO[C@@H]2Cn3cc(C(=O)NCc4cnc5cnccn45)c(=O)c(O)c3C(=O)N12` [Compound 1.1.59, (3S,11aR)-6-hydroxy-N-(imidazo[1,2-a]pyrazin-3-ylmethyl)-3-methyl-5,7-dioxo-2,3,5,7,11,11a-hexahydro[1,3]oxazolo[3,2-a]pyrido[1,2-d]pyrazine-8-carboxamide] was over 30 nM.
The same measure for `C[C@H]1CO[C@@H]2Cn3cc(C(=O)NCc4nccs4)c(=O)c(O)c3C(=O)N12` [Compound 1.1.8, (3S,11aR)-6-hydroxy-3-methyl-N-(1,3-thiazol-2-ylmethyl)-5,7-dioxo-2,3,5,7,11,11a-hexahydro[1,3]oxazolo[3,2-a]pyrido[1,2-d]pyrazine-8-carboxamide]: 2 to 10 nM; for `O=C(NCc1ccc(F)nc1F)c1cn2c(c(O)c1=O)C(=O)N1[C@H]3CC[C@H](C3)O[C@@H]1C2` [Compound 1.3.1, (2R,5S,13aR)-8-hydroxy-N-[(2,6-difluoropyridin-3-yl)methyl]-7,9-dioxo-2,3,4,5,7,9,13,13a-octahydro-2,5-methanopyrido[1′,2′:4,5]pyrazino[2,1-b][1,3]oxazepine-10-carboxamide]: 2 to 10 nM; for `C[C@H]1CO[C@@H]2Cn3cc(C(=O)NCc4nc5c(s4)CCCCC5)c(=O)c(O)c3C(=O)N12` [Compound 1.1.63, (3S,11aR)-6-hydroxy-3-methyl-5,7-dioxo-N-(5,6,7,8-tetrahydro-4H-cyclohepta[d][1,3]thiazol-2-ylmethyl)-2,3,5,7,11,11a-hexahydro[1,3]oxazolo[3,2-a]pyrido[1,2-d]pyrazine-8-carboxamide]: over 30 nM.
Take `CC(C)n1c(CNC(=O)c2cn3c(c(O)c2=O)C(=O)N2[C@@H](C)CO[C@@H]2C3)nc2ccc(Cl)cc21` [Compound 1.1.45, (3S,11aR)-6-hydroxy-3-methyl-N-[(6-chloro-1-isopropyl-1H-benzimidazol-2-yl)methyl]-5,7-dioxo-2,3,5,7,11,11a-hexahydro[1,3]oxazolo[3,2-a]pyrido[1,2-d]pyrazine-8-carboxamide]: the EC50 is over 30 nM.
The same measure for `C[C@@H]1CCO[C@H]2Cn3cc(C(=O)NCc4c(F)cc(F)nc4F)c(=O)c(O)c3C(=O)N12` [Compound 1.2.3, (4R,12aS)-7-hydroxy-4-methyl-N-[(2,4.6-trifluoropyridin-3-yl)methyl]-6,8-dioxo-3,4,6,8,12,12a-hexahydro-2H-pyrido[1′,2′:4,5]pyrazino[2,1-b][1,3]oxazine-9-carboxamide]: 2 to 10 nM.

These data come from US20230020329A1, “Annelated 9-hydroxy-1,8-dioxo-1,3,4,8-tetrahydro-2H-pyrido[1,2-a]pyrazine-7-carboxamides as HIV integrase inhibitors, methods of preparation and application thereof” (priority 2019, published 2023).
